Test results reported in ChEMBL document CHEMBL5576069, “Novel 4-[4-(4-methylpiperazin-1-yl)phenyl]-6-arylpyrimidine derivatives and their antitrypanosomal activities against T.brucei” (Bioorg Med Chem Lett, 2024).
Activity calls are given as the source filed them. The calls are words filed in the database; no cut-off is given here.

How the values were obtained:
[1] = test system: Trypanosoma brucei rhodesiense; assay: Antitrypanosomal activity against Trypanosoma brucei rhodesiense STIB900 trypomastigotes incubated for 70 hrs by resazurin dye based microplate fluorometer; format: functional, organism-based; conditions: STIB900, 70 h
[2] = Cytotoxicity against rat L6 cells; format: toxicity, cell-based
[3] = test system: Trypanosoma cruzi; assay: Antitrypanosomal activity against Trypanosoma cruzi Tulahuen C4; format: functional, organism-based
[4] = test system: Leishmania donovani; assay: Antitrypanosomal activity against Leishmania donovani amastigotes MHOM-ET-67/L8; format: functional, organism-based
[5] = test system: Trypanosoma brucei rhodesiense; assay: Antitrypanosomal activity against Trypanosoma brucei rhodesiense; format: functional, organism-based

EC50 [1] [µM]	EC50 [5] [µM]	EC90 [5] [µM]	SMILES	EC50 [2] [µM]	Activity [3]	Activity [4]
10.1			Cc1nc(-c2ccc(N3CCN(C)CC3)cc2)cc(-c2ccc(Cl)cc2Cl)n1	> 100	inactive	inactive
20.2			CN1CCN(c2ccc(-c3cc(-c4ccccc4Cl)nc(N)n3)cc2)CC1	40	inactive	inactive
			COc1cc([C@@H]2c3cc4c(cc3[C@H](O)[C@H]3COC(=O)[C@H]23)OCO4)cc(OC)c1OC [PODOFILOX]	0.02		
0.6			CN1CCN(c2ccc(-c3cc(-c4ccc(Br)cc4)ncn3)cc2)CC1	14.4	inactive	inactive
4.3			Cc1nc(-c2ccc(N3CCN(C)CC3)cc2)cc(-c2ccccc2Br)n1	35.2	inactive	inactive
0.6			Cc1nc(-c2ccc(Cl)cc2)cc(-c2ccc(N3CCN(C)CC3)cc2)n1	5.3	inactive	inactive
5.8			CN1CCN(c2ccc(-c3cc(-c4ccccc4Cl)ncn3)cc2)CC1	42.6	inactive	inactive
1.7			CN1CCN(c2ccc(-c3cc(-c4cccc(Cl)c4)ncn3)cc2)CC1	36.3	inactive	inactive
1.1			CN1CCN(c2ccc(-c3cc(-c4cccc(Br)c4)nc(N)n3)cc2)CC1	33.6	inactive	inactive
14			CN1CCN(c2ccc(-c3cc(-c4ccccc4[N+](=O)[O-])nc(N)n3)cc2)CC1	7.1	inactive	inactive
9.7			CN1CCN(c2ccc(-c3cc(-c4ccccc4Br)ncn3)cc2)CC1	39.6	inactive	inactive
2.4			CN1CCN(c2ccc(-c3cc(-c4ccc(Cl)cc4Cl)ncn3)cc2)CC1	> 100	inactive	inactive
2.8			Cc1nc(-c2ccccc2)cc(-c2ccc(N3CCN(C)CC3)cc2)n1	79.7	inactive	inactive
0.9			Cc1nc(-c2ccc(Br)cc2)cc(-c2ccc(N3CCN(C)CC3)cc2)n1	11.2	inactive	inactive
1.7			Cc1nc(-c2ccc(N3CCN(C)CC3)cc2)cc(-c2cccc(Cl)c2)n1	20.8	inactive	inactive
1.7			CN1CCN(c2ccc(-c3cc(-c4cccc(Cl)c4)nc(N)n3)cc2)CC1	79.7	inactive	inactive
1.8			CN1CCN(c2ccc(-c3cc(-c4cccc(Cl)c4Cl)ncn3)cc2)CC1	18.1	inactive	inactive
1.6			CN1CCN(c2ccc(-c3cc(-c4cccc(Br)c4)ncn3)cc2)CC1	64.5	inactive	inactive
10.3			CN1CCN(c2ccc(-c3cc(-c4ccccc4Br)nc(N)n3)cc2)CC1	11.6	inactive	inactive
1.6			Cc1nc(-c2ccc(N3CCN(C)CC3)cc2)cc(-c2cccc(Br)c2)n1	21.1	inactive	inactive
0.5			CN1CCN(c2ccc(-c3cc(-c4ccc(Cl)cc4Cl)nc(N)n3)cc2)CC1	7.4	inactive	inactive
3.6			CN1CCN(c2ccc(-c3cc(-c4ccccc4)nc(N)n3)cc2)CC1	30	inactive	inactive
1.8			CN1CCN(c2ccc(-c3cc(-c4ccc(Cl)cc4)nc(N)n3)cc2)CC1	13	inactive	inactive
1.6			CN1CCN(c2ccc(-c3cc(-c4ccc(Br)cc4)nc(N)n3)cc2)CC1	5.1	inactive	inactive
3.6			Cc1nc(-c2ccc(N3CCN(C)CC3)cc2)cc(-c2cccc(Cl)c2Cl)n1	37.3	inactive	inactive
	0.76	0.76	CSc1ccc(OCc2ncc([N+](=O)[O-])n2C)cc1 [FEXINIDAZOLE]			
15.2			CN1CCN(c2ccc(-c3cc(-c4ccccc4[N+](=O)[O-])ncn3)cc2)CC1	46.9	inactive	inactive
3.8			CN1CCN(c2ccc(-c3cc(-c4ccccc4)ncn3)cc2)CC1	42.7	inactive	inactive
13.5			Cc1nc(-c2ccc(N3CCN(C)CC3)cc2)cc(-c2ccccc2[N+](=O)[O-])n1	40.2	inactive	inactive
0.5			CN1CCN(c2ccc(-c3cc(-c4ccc(Cl)cc4)ncn3)cc2)CC1	16.4	inactive	inactive
